In brackets after ≈: the same amount, converted by molar mass.
What was measured:
physchem = type: physicochemical
Method: An Orion 710A pH-meter equipped with a Metrohm combined electrode (type 6.0234.100) and a Metrohm 665 Dosimat burette were used for the UV–vis titrations at 25.0 ± 0.1 °C. Ionic strength of 0.10 M (KCl) was used to keep the activity coefficients constant. The titrations were performed with carbonate-free KOH solution of known concentration (0.10 M) with 30% (v/v) DMSO content. […] The average water ionization constant (pKw) is 14.54 ± 0.05 in the 30% (v/v) DMSO/H2O mixture. Argon was always passed over the solutions during the titrations. An Agilent Cary 8454 diode array spectrophotometer was used to record the UV–vis spectra at an interval of 200–800 nm. The path length was 2 cm. Spectrophotometric titrations were performed using a 0.1 M KOH titrant solution with 30% (v/v) DMSO on samples with 30% (v/v) DMSO containing HCl, KCl and the ligand at 20 μM concentration in the pH range 2.0–12.5 in the absence or in the presence of 1 or 0.5 equiv. Cu(II) ions. Proton dissociation constants (Ka) of the TSC ligands, the overall stability constants (β) of the Cu(II) complexes and the UV–vis spectra of the individual species were calculated by the computer program PSEQUAD [41] as was done in our previous works.

E. faecalis ATCC 29212 = test: MIC determination; type: cell-based, Enterococcus faecalis; conditions: Enterococcus faecalis, ATCC29212; Gram-positive E. faecalis ATCC 29212; Mueller Hinton Broth
How it was run: (§1)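 Broth microdilution in Mueller Hinton Broth, two-fold serial dilutions starting at 100 µM compound (from 10 mM stocks in 90% DMSO). Each well inoculated with a 10^−4 dilution of overnight culture. MIC read per prior lab method.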

DU-145 = test: MTT cytotoxicity assay; type: cell-based, human; conditions: Homo sapiens; DU-145, MTT, 24 h incubation time
How it was run: (§2)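 Cells were exposed 24 h to 0–20 µM (2.5, 5, 10, 15, 20 µM) Cu(II) complexes, ligands or metal salts (equimolar ligand–CuCl2), then 0.5 mg/mL MTT for 1 h at 37 °C. Formazan was dissolved in DMSO and read at 570 nm; viability is relative to untreated control as 100%.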

A549 = test: MTT cytotoxicity assay; type: cell-based, human; conditions: Homo sapiens, 24 h incubation time
How it was run: as §2

MCF-7 KCR = test: MTT cytotoxicity assay; type: cell-based, human; conditions: Homo sapiens, MCF7, 24 h incubation time
How it was run: as §2

MCF-7 = test: MTT cytotoxicity assay; type: cell-based, human; conditions: Homo sapiens, MCF7; MCF-7, MTT, 24 h incubation time
How it was run: as §2

S. aureus ATCC 25928 = test: MIC determination; type: cell-based, Staphylococcus aureus; conditions: Gram-positive S. aureus ATCC 25928, Mueller Hinton Broth
How it was run: as §1

[1] = direct redox reaction of the Cu(II) complexes with GSH (UV–vis, anaerobic); type: physicochemical; conditions: Cu(II) complex (25 µM) of the named ligand with GSH (1.25 mM), pH 7.4, anaerobic, 30% (v/v) DMSO/H2O, 25.0 °C
How it was run: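 Complexes mixed with GSH or ascorbic acid at 25.0 ± 0.1 °C, pH 7.40 (10 mM HEPES, 0.1 M KCl) in a sealed tandem cuvette, both compartments argon-deoxygenated 10 min before mixing. UV–vis absorbance followed at complex λmax until stable; single-exponential fit, kobs taken as slope of ln(A/A0) versus t.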

## C[C@]12CC[C@@H]3c4cc(C=NNC(N)=S)c(O)cc4CC[C@H]3[C@@H]1CCC2O (stereo partly shown) [estradiol-TSC, 2-((3,17 Dihydroxy-estra-1,3,5(10)-triene-2-yl)methylene)Hydrazine-1-carbothioamide]
physchem
  pKa: 9.23 ± 0.03
E. faecalis ATCC 29212
  MIC: > 100 µM
DU-145
  IC50: > 20 µM
A549
  IC50: 20.5 ± 1.07 µM
MCF-7 KCR
  IC50: > 20 µM
MCF-7
  IC50: > 20 µM
other
  melting point: 229 to 231 °C
S. aureus ATCC 25928
  MIC: 25 µM (≈ 9.34 µg/mL)
S. aureus ATCC 25928; Staphylococcus aureus, ATCC25928
  MIC: 25 µM (≈ 9.34 µg/mL)
[1]
  kobs: 0.07 ± 0.03 min⁻¹

Reference: paper PMC9822434, “Estradiol-Based Salicylaldehyde (Thio)Semicarbazones and Their Copper Complexes with Anticancer, Antibacterial and Antioxidant Activities” (Molecules, 2022)
